{"source": "patent US20040241243A1", "about": "“Angiogenesis promotion by prostaglandin compositions and methods” (NexMed (Holdings) Inc., priority 2003, published 2004)", "key": {"EP2 receptor": {"biological_target": "EP2 receptor (Mus musculus, UniProt Q62053)", "sequence (Q62053 whole entry)": "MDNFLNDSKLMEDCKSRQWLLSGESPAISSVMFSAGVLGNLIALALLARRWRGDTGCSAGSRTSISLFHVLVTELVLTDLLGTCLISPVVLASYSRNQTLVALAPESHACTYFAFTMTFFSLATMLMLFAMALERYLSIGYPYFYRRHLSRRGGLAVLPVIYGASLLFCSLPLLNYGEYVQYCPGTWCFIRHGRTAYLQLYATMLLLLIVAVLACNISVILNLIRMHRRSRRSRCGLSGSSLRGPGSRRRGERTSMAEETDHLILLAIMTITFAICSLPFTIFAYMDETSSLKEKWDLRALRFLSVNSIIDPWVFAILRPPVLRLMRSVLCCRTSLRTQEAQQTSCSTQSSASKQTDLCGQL", "details": "read-out: affinity for the EP2 receptor; cited from earlier work"}, "endothelial cells": {"test_system": "endothelial cells", "details": "in vitro; cited from earlier work"}, "[1]": {"test_system": "segments of rat iliac arteries", "experiment": "microvascular outgrowth from rat iliac artery ringlets cultured in Matrigel", "type": "cell-based, Sprague-Dawley rats", "procedure": "Each sample was placed on a reduced-growth factor Matrigel coated coverglass slide in a culture dish filled with serum-free medium. […] The cultures were incubated at 37° C. in a humidified atmosphere with 5% CO2. Digital photographs were taken of growth after 96 hours.\nGrowth Factor Reduced Matrigel (Passaniti, A., et al., Lab. Invest. 1992 67:518-528) was purchased from Becton Dickinson (Mountain View, Calif.). Cell culture grade PGE1 was purchased from Sigma Chemical. (St. Louis, Mo.). RPIM-1640 and other cell culture reagents were purchased from GIBCO Invitrogen Corp. (Grand Island, N.Y.).\nMale Sprague-Dawley rats, two-months old, were used in this study. All animal care, treatments, and procedures were approved by the institutional Committee on Animal Research. The rats were sacrificed by intraperitoneal injection of sodium pentobarbital (50 mg/kg) followed by bilateral thoracotomy and the removal of segments of iliac arteries.\nThe iliac artery segments isolated from Sprague-Dawley rats were sectioned into ringlets and cultured attached to Matrigel-coated glass coverslips. The coverslips were used as the supporting platform to facilitate samples processing for histological staining and examination. Coverslips were coated as follows. Growth Factor Reduced Matrigel (Becton Dickinson, Mountain View, Calif.) was diluted 3-fold in serum-free RPMI-1640 in a 35-mm culture dish on ice. The diluted Matrigel was then spread onto cold sterilized glass coverslips using a sterilized glass slide as spreader. The coated coverslips were placed in 35-mm culture dishes and incubated at 37° C. for 1 hr to allow the Matrigel to solidify. Iliac artery ringlets were placed on top of Matrigel coated coverslips and covered by 50 μl cold Growth Factor Reduced Matrigel which had been kept in liquid form. After a 5-min incubation at 37° C. to allow the Matrigel to polymerize, 3 ml of serum-free RPMI 1640 medium supplemented with 1×penicillin-streptomycin-fangizone (Cell Culture Facility, University of California, San Francisco) was added. […] The iliac artery ringlet cultures were maintained at 37 ° C. in a humidified atmosphere with 5% CO2.\nAfter 96 hours of incubation, the iliac artery ringlet cultures were examined. Microvascular growths were photographed using a professional DCS-420 digital camera (Eastman Kodak, Rochester, N.Y.) connected to an Olympus microscope and an Apple Macintosh PowerMac computer. All samples were photographed and the images were stored for later analysis. The digital images were analyzed using ChemiImager 4000 software (Alpha Innotech Corporation, San Leandro, Calif.) to determine the maximum length of the microvascular growths.\nStatistical analysis was performed using computer software from Primer of Biostatistics, 3rd ed. (Glantz SA, McGraw-Hill, Inc. New York, 1992). The data involving different time points were first analyzed by one-way analysis of variance (ANOVA). If ANOVA indicated a significant difference, the Student-Neuman-Keuls test was used to perform pair-wise comparisons."}, "[2]": {"details": "three months intracavernous injections three times a week; patients completing treatment; cited from earlier work"}, "[3]": {"details": "three months intracavernous injections three times a week; cited from earlier work"}, "VEGF": {"test_system": "VEGF", "details": "systemic treatment of patients; cited from earlier work"}}}
{"molecule": "CCCCC[C@H](O)/C=C/[C@H]1[C@H](O)CC(=O)[C@@H]1C/C=C\\CCCC(=O)O", "note": "[PGE2, prostaglandin E2]", "values": [{"measurement": "Kd", "setting": "EP2 receptor", "value": "~10", "unit": "nM"}, {"measurement": "effect on VEGF", "setting": "endothelial cells", "value": "up-regulate VEGF"}]}
{"molecule": "Prostaglandin E1 [PGE1]", "values": [{"measurement": "peak microvascular growth", "setting": "[1]; 1 μM PGE1", "value": 680, "unit": "micrometers"}, {"measurement": "Length of longest microvascular growth", "setting": "[1]; 1 μM PGE1, 96 hours", "value": 680, "unit": "μm"}, {"measurement": "Length of longest microvascular growth", "setting": "[1]; 10 μM PGE1, 96 hours", "value": 360, "unit": "μm"}, {"measurement": "Length of longest microvascular growth", "setting": "[1]; 20 μM PGE1, 96 hours", "value": 100, "unit": "μm"}, {"measurement": "Length of longest microvascular growth", "setting": "[1]; 30 μM PGE1, 96 hours", "value": 30, "unit": "μm"}, {"measurement": "Length of longest microvascular growth", "setting": "[1]; 60 μM PGE1, 96 hours", "value": 5, "unit": "μm"}, {"measurement": "effect on microvascular outgrowth", "setting": "[1]; primary cultures of rat iliac artery segments", "value": "enhance microvascular outgrowth"}, {"measurement": "patients reporting recovery of spontaneous erections sufficient for intercourse", "setting": "[2]", "value": "8 of the 12"}, {"measurement": "recovery of spontaneous erections", "setting": "[3]", "value": "more likely to recover spontaneous erections"}, {"measurement": "responsiveness to oral sildenafil therapy", "setting": "[3]", "value": "more likely to be responsive to oral sildenafil therapy"}, {"measurement": "effect on VEGF expression", "setting": "VEGF", "value": "up-regulate expression of VEGF"}]}
